Ten molecules from ChEMBL document CHEMBL4840317, “Saccharochelins A-H, Cytotoxic Amphiphilic Siderophores from the Rare Marine Actinomycete Saccharothrix sp. D09” (J Nat Prod, 2021) can be followed below.

Active and inactive are the calls of the source. A value given as a limit tells only on which side of the number the result lay.

A short description of assay [1]: Binding affinity to Fe3+ assessed as formation of Fe3+-compound complex at 5 to 640 uM in presence of FeCl3 incubated for 3 hrs by Chrome Azurol S assay. To be noted: dose 5-640 µM.
A further assay has as its system A549. Kind of assay: Cytotoxicity against human A549 cells assessed as reduction in cell viability by MTT assay. Format: functional, cell-based. (Tetrazolium dyes change colour on reduction, which living cells bring about.)
Another assay relates to HCT-116. Put plainly: Cytotoxicity against human HCT-116 cells assessed as reduction in cell viability by MTT assay. It is filed as functional, cell-based.
In another assay the test system is HepG2. Kind of assay: Cytotoxicity against human HepG2 cells assessed as reduction in cell viability by MTT assay. It is filed as functional, cell-based.
Assay [2] addresses Angiotensin-converting enzyme 2 (Homo sapiens) (UniProt Q9BYF1). Put plainly: Inhibition of ACE2 (unknown origin) upto 100 ug/ml incubated for 15 mins followed by substrate addition by fluorescence based analysis. To be noted: dose microg/ml <=100, time 15.0 min.
A further assay has as its system Staphylococcus aureus. Put plainly: Antibacterial activity against Staphylococcus aureus ATCC 29213 assessed as inhibition of bacterial growth incubated for 18 hrs by Kirby-Bauer disk diffusion method. Format: functional. On the technique in general: In agar diffusion tests the substance spreads into inoculated agar from a disc or well.
A further assay has as its system Bacillus subtilis. Put plainly: Antibacterial activity against Bacillus subtilis ATCC 6633 assessed as inhibition of bacterial growth incubated for 18 hrs by Kirby-Bauer disk diffusion method. It is filed as functional.
A further assay relates to Escherichia coli. Kind of assay: Antibacterial activity against Escherichia coli ATCC 35218 assessed as inhibition of bacterial growth incubated for 18 hrs by Kirby-Bauer disk diffusion method. It is filed as functional.
For a further assay, the system named is Pseudomonas aeruginosa. Put plainly: Antibacterial activity against Pseudomonas aeruginosa ATCC 27853 assessed as inhibition of bacterial growth incubated for 18 hrs by Kirby-Bauer disk diffusion method. Format: functional.
The test system of a further assay is MCF7. Kind of assay: Cytotoxicity against human MCF7 cells assessed as reduction in cell viability by MTT assay. Format: functional, cell-based.
Assay [3] is described as follows: Binding affinity to Fe3+ assessed as formation of Fe3+-compound complex coordinate ratio of 1:1 measured under neutral pH by UV-visible spectrophotometric titration analysis.

Angiotensin-converting enzyme 2 (Homo sapiens), sequence (Q9BYF1 18-805 limits assumed): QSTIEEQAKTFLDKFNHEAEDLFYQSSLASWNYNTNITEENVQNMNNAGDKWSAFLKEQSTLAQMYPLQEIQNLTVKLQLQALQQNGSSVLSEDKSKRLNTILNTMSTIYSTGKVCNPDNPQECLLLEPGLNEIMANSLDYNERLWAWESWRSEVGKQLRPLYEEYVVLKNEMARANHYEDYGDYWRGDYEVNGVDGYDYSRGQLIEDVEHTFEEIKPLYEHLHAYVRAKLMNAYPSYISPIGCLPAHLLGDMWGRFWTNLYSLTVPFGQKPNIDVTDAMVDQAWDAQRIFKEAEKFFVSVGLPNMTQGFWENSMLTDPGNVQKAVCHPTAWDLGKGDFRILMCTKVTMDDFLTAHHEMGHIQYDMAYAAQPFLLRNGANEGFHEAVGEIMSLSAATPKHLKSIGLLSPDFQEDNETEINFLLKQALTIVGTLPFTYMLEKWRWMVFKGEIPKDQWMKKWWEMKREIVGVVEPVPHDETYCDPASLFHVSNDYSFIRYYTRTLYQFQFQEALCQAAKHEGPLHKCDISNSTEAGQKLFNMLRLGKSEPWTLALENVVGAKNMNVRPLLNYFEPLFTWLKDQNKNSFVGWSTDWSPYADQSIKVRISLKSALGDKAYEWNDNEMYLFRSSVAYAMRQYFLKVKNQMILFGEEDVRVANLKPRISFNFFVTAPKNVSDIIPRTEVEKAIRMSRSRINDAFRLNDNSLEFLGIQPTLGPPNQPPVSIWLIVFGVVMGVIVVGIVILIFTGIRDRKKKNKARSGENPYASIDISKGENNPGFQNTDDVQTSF

Consider `CC(=O)N(O)CCCCCNC(=O)CCC(=O)N(O)CCCCCNC(=O)CCC(=O)N(O)CCCCCN`, for which, in [1], the outcome was Active.

Take `COc1cccc2c1C(=O)c1c(O)c3c(c(O)c1C2=O)C[C@@](O)(C(=O)CO)C[C@@H]3O[C@H]1C[C@H](N)[C@H](O)[C@H](C)O1` [DOXORUBICIN]: the IC50 in the assay on A549 was determined as 0.9 µM; with HCT-116, 1.1 µM; in the assay with HepG2 it was 1.3 µM.

Consider `CCCCCCCCCCCCC(=O)N[C@@H](CCCN(O)C=O)C(=O)N[C@@H](CO)C(=O)N(O)CCC[C@@H]1NC(=O)[C@H](CCCN(O)C=O)NC1=O`, for which the outcome in assay [1] was Active. The inhibition result in assay [2] was “inactive”. The MIC in the assay on Staphylococcus aureus, in the assay with Bacillus subtilis, in the assay on Escherichia coli and in the assay on Pseudomonas aeruginosa was greater than 100 µM throughout. The IC50 with MCF7 is greater than 20 µM; with A549, 3.4 µM; in the assay on HCT-116, 10 µM; with HepG2, 10 µM.

For `CC(C)CCCCCCCCC(=O)N[C@@H](CCCN(O)C=O)C(=O)N[C@@H](CO)C(=O)N(O)CCC[C@@H]1NC(=O)[C@H](CCCN(O)C=O)NC1=O`, the inhibition entry in [2] was “inactive”. Besides, the MIC with Staphylococcus aureus, in the assay with Bacillus subtilis, in the assay on Escherichia coli and in the assay with Pseudomonas aeruginosa was greater than 100 µM each time. Besides, the IC50 is greater than 20 µM in the assay with MCF7, 13 µM in the assay with A549, 9.7 µM in the assay with HCT-116 and greater than 20 µM in the assay with HepG2.

`CC(C)CCCCCCCCCC(=O)N[C@@H](CCCN(O)C=O)C(=O)N[C@@H](CO)C(=O)N(O)CCC[C@@H]1NC(=O)[C@H](CCCN(O)C=O)NC1=O`: the result in [1] and in assay [3] was Active. The inhibition entry in assay [2] was “inactive”. Moreover, the MIC with Staphylococcus aureus, with Bacillus subtilis, in the assay with Escherichia coli and with Pseudomonas aeruginosa was greater than 100 µM each time. For the same molecule, the concentration for half-maximal inhibition (IC50) was greater than 20 µM with MCF7, greater than 20 µM in the assay on A549, greater than 20 µM in the assay with HCT-116 and 7.7 µM with HepG2.

On to `CCCCCCCCCCCCCCC(=O)N[C@@H](CCCN(O)C=O)C(=O)N[C@@H](CO)C(=O)N(O)CCC[C@@H]1NC(=O)[C@H](CCCN(O)C=O)NC1=O`, for which the inhibition entry in [2] is “inactive”. In addition, the MIC in the assay on Staphylococcus aureus, in the assay on Bacillus subtilis, with Escherichia coli and in the assay with Pseudomonas aeruginosa was greater than 100 µM in each case. Also, the IC50 in the assay on MCF7 is 5.9 µM; in the assay with A549, 3.3 µM; in the assay with HCT-116 it was 4.8 µM; with HepG2, 4.3 µM.

Consider `CC(C)CCCCCCCCCCCC(=O)N[C@@H](CCCN(O)C=O)C(=O)N[C@@H](CO)C(=O)N(O)CCC[C@@H]1NC(=O)[C@H](CCCN(O)C=O)NC1=O`, for which, in assay [1], the outcome was Active. Further, the inhibition result in assay [2] was “inactive”. Further, the MIC in the assay on Staphylococcus aureus, in the assay with Bacillus subtilis, in the assay on Escherichia coli and in the assay on Pseudomonas aeruginosa was greater than 100 µM each time. The IC50 in the assay on MCF7 was greater than 20 µM; in the assay on A549, 8.1 µM; in the assay on HCT-116, greater than 20 µM; in the assay on HepG2, 2.3 µM.

As to `CCCCCCCCCCCCCC(=O)N[C@@H](CCCN(O)C=O)C(=O)N[C@@H](CO)C(=O)N(O)CCC[C@@H]1NC(=O)[C@H](CCCN(O)C=O)NC1=O`, the inhibition result in assay [2] was “inactive”. Besides, the MIC in the assay with Staphylococcus aureus, in the assay with Bacillus subtilis, with Escherichia coli and in the assay on Pseudomonas aeruginosa was greater than 100 µM each time. For the same molecule, the IC50 in the assay on MCF7, in the assay on A549, in the assay with HCT-116 and in the assay with HepG2 was greater than 20 µM throughout.

Take `CCCCCCCCCCCC(=O)N[C@@H](CCCN(O)C=O)C(=O)N[C@@H](CO)C(=O)N(O)CCC[C@@H]1NC(=O)[C@H](CCCN(O)C=O)NC1=O`: the result in assay [1] was Active. Moreover, the inhibition result in assay [2] is “inactive”. Moreover, the MIC with Staphylococcus aureus, in the assay with Bacillus subtilis, in the assay with Escherichia coli and in the assay with Pseudomonas aeruginosa was greater than 100 µM in each case. In addition, the IC50 with MCF7 is 17 µM; in the assay on A549 it was 11 µM; in the assay with HCT-116, 11 µM; with HepG2, greater than 20 µM.

`CC(C)CCCCCCCCCCC(=O)N[C@@H](CCCN(O)C=O)C(=O)N[C@@H](CO)C(=O)N(O)CCC[C@@H]1NC(=O)[C@H](CCCN(O)C=O)NC1=O`: in assay [1], the outcome was Active. In addition, in assay [2], the inhibition entry is “inactive”. Also, the MIC in the assay with Staphylococcus aureus, with Bacillus subtilis, with Escherichia coli and in the assay on Pseudomonas aeruginosa was greater than 100 µM throughout. Also, the half-inhibitory concentration (IC50) with MCF7 is greater than 20 µM; in the assay with A549, 14 µM; with HCT-116, greater than 20 µM; in the assay with HepG2, greater than 20 µM.

In general, IC50 refers to the concentration that inhibits the measured activity by half. In general, MIC refers to the smallest concentration in the dilution series that meets the test's criterion for growth inhibition.
